Activity calls are given as the source filed them. No cut-off for these calls is given here.
Legend:
[1] = molecular target: Serine/threonine-protein kinase 33 (Homo sapiens) (UniProt Q9BYT3); test: Inhibition of human STK33 at 1 uM using MBP as substrate in presence of [gamma33P]-ATP by HotSpot assay relative to control
[2] = molecular target: Receptor-interacting serine/threonine-protein kinase 2 (Homo sapiens) (UniProt O43353); test: Inhibition of human RIPK2 at 1 uM using MBP as substrate in presence of [gamma33P]-ATP by HotSpot assay relative to control
Chain of Receptor-interacting serine/threonine-protein kinase 2 (Homo sapiens) (O43353 whole entry, canonical isoform): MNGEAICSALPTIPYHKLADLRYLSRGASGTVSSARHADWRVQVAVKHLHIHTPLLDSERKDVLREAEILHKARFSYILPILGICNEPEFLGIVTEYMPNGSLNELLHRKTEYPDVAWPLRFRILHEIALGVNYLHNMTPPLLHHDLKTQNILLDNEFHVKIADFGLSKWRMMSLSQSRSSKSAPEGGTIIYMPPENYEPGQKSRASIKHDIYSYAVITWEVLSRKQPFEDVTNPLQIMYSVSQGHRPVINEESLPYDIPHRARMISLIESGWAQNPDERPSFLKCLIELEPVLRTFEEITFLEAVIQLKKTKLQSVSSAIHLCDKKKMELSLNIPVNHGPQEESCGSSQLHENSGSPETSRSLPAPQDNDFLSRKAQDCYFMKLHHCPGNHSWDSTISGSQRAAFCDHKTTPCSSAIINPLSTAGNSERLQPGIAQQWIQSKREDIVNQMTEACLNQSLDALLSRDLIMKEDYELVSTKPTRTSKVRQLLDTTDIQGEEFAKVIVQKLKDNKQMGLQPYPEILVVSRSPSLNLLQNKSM

[3] = molecular target: Casein kinase I isoform gamma-2 (Homo sapiens) (UniProt P78368); test: Inhibition of human CSNK1G2 at 1 uM using KRRRAL[pS]VASLPGL as substrate in presence of [gamma33P]-ATP by HotSpot assay relative to control
Chain of Casein kinase I isoform gamma-2 (Homo sapiens) (P78368 whole entry, looked up, canonical isoform): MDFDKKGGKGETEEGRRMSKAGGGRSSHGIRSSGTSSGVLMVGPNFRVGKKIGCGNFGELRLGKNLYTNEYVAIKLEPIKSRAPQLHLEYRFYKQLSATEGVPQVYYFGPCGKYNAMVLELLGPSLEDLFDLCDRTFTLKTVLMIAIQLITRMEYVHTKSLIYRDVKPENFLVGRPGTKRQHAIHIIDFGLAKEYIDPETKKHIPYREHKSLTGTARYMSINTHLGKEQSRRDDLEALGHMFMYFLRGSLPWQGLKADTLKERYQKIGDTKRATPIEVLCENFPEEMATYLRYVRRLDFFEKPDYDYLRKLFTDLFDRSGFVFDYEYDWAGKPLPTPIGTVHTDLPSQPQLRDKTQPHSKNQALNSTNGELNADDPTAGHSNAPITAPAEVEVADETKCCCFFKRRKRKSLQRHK

[4] = molecular target: Mitogen-activated protein kinase kinase kinase 14 (Homo sapiens) (UniProt Q99558); test: Inhibition of human MAP3K14 at 1 uM using MBP as substrate in presence of [gamma33P]-ATP by HotSpot assay relative to control
[5] = molecular target: Non-receptor tyrosine-protein kinase TYK2 (Homo sapiens) (UniProt P29597); test: Inhibition of human TYK2 at 1 uM using KKSRGDYMTMQIG as substrate in presence of [gamma33P]-ATP by HotSpot assay relative to control
[6] = molecular target: Serine/threonine-protein kinase Chk1 (Homo sapiens, UniProt O14757); test: Inhibition of human CHEK1 using KKKVSRSGLYRSPSMPENLNRPR as substrate in presence of [gamma33P]-ATP by HotSpot assay
[7] = molecular target: Serine/threonine-protein kinase TBK1 (Homo sapiens) (UniProt Q9UHD2); test: Inhibition of human TBK1 at 1 uM using MBP as substrate in presence of [gamma33P]-ATP by HotSpot assay relative to control
[8] = Toxicity in SCID Beige mouse xenografted with ALK positive human KARPAS-299 cells assessed as effect on body weight at 10 to 50 mg/kg; type: organism-based; conditions: in vivo, dose 10-50 mg/kg
[9] = molecular target: cGMP-dependent protein kinase 1 (Homo sapiens) (UniProt Q13976); test: Inhibition of human PKG1b at 1 uM using LRRASLG as substrate in presence of [gamma33P]-ATP by HotSpot assay relative to control
Chain of cGMP-dependent protein kinase 1 (Homo sapiens) (Q13976 whole entry): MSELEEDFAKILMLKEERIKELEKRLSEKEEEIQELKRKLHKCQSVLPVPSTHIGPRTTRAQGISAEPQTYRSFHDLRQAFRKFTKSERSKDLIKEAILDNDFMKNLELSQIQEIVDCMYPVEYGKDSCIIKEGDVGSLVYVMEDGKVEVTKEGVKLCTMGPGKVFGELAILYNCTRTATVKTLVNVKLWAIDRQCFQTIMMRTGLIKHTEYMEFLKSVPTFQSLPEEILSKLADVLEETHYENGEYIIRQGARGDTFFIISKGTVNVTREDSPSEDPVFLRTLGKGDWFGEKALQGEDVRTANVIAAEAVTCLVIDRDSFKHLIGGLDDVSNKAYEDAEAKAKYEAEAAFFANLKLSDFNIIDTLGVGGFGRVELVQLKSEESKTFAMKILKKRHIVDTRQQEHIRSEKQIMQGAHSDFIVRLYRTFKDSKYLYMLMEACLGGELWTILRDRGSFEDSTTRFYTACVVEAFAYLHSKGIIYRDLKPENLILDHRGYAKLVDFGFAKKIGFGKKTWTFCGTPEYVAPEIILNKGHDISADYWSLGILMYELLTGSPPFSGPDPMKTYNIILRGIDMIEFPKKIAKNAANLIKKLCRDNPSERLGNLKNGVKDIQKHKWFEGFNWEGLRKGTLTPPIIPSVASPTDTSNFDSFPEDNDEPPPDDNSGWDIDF

[10] = molecular target: Ephrin type-B receptor 2 (Homo sapiens) (UniProt P29323); test: Inhibition of human EPHB2 at 1 uM using poly (Glu, Tyr)4:1 as substrate in presence of [gamma33P]-ATP by HotSpot assay relative to control
Chain of Ephrin type-B receptor 2 (Homo sapiens) (P29323 whole entry): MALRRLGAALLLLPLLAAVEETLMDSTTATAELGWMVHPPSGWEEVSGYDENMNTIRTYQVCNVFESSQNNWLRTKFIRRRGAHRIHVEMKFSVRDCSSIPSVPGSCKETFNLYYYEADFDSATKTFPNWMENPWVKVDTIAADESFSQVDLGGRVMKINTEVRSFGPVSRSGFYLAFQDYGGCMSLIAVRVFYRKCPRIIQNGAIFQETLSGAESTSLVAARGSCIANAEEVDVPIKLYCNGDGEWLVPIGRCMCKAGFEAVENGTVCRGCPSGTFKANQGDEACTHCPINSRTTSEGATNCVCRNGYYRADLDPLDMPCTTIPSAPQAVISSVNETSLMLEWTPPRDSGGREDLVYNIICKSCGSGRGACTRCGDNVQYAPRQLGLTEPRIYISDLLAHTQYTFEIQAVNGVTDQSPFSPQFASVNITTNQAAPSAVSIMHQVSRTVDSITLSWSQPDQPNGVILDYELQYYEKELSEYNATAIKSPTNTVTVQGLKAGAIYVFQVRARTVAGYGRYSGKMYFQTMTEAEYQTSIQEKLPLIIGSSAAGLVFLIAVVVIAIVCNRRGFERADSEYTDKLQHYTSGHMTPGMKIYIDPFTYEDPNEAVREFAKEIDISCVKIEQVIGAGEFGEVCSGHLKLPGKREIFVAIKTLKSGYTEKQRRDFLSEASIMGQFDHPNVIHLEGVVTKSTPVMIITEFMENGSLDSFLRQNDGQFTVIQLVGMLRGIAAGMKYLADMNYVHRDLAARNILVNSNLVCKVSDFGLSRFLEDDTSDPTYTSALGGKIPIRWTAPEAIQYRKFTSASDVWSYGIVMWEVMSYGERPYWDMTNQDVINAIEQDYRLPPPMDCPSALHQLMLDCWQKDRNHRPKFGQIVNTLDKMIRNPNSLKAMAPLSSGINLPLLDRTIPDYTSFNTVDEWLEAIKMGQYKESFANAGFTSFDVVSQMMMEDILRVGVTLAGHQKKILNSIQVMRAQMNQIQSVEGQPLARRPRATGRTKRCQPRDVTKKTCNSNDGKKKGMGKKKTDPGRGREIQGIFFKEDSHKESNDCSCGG

[11] = molecular target: Serine/threonine-protein kinase STK11 (Homo sapiens) (UniProt Q15831); test: Inhibition of human STK11 at 1 uM using LSNLYHQGKFLQTFCGSPLYRRR as substrate in presence of [gamma33P]-ATP by HotSpot assay relative to control
Chain of Serine/threonine-protein kinase STK11 (Homo sapiens) (Q15831 whole entry): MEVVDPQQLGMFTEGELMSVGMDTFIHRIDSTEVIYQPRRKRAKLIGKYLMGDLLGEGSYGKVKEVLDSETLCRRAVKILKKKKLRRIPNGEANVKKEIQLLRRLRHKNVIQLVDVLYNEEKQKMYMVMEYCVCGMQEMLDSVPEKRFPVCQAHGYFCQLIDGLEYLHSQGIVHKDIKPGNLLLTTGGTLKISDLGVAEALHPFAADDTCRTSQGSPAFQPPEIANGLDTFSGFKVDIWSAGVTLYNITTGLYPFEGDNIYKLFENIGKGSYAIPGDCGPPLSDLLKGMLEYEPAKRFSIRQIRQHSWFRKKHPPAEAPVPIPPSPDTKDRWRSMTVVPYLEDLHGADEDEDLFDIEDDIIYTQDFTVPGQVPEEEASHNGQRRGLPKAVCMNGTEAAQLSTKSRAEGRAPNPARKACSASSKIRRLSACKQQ

[12] = tested on: EML4-ALK (Homo sapiens), Q9UM73+Q9HC35 [F1174I]; conditions: BaF3, dose 200.0 nmol/L, time 3-5 weeks
[13] = tested on: EML4-ALK (Homo sapiens), Q9UM73+Q9HC35 [E1210K]; conditions: BaF3, dose 500.0 nmol/L, time 3-5 weeks
[14] = molecular target: Eukaryotic elongation factor 2 kinase (Homo sapiens) (UniProt O00418); test: Inhibition of human EEF2K at 1 uM using RKKFGESEKTKTKEFL as substrate in presence of [gamma33P]-ATP by HotSpot assay relative to control
[15] = molecular target: Vascular endothelial growth factor receptor 2 (Homo sapiens, UniProt P35968); test: Inhibition of human VEGFR2 using poly (Glu, Tyr)4:1 as substrate in presence of [gamma33P]-ATP by HotSpot assay
[16] = tested on: EML4-ALK (Homo sapiens), Q9UM73+Q9HC35 [G1269A]; conditions: BaF3, dose 500.0 nmol/L, time 3-5 weeks
[17] = molecular target: Serine/threonine-protein kinase mTOR (Homo sapiens) (UniProt P42345); test: Inhibition of human MTOR at 1 uM using 4EBP1 as substrate in presence of [gamma33P]-ATP by HotSpot assay relative to control
[18] = molecular target: MAP kinase-activated protein kinase 5 (Homo sapiens) (UniProt Q8IW41); test: Inhibition of human MAPKAPK5 at 1 uM using KKLNRTLSVA as substrate in presence of [gamma33P]-ATP by HotSpot assay relative to control
[19] = molecular target: Mitogen-activated protein kinase 14 (Homo sapiens) (UniProt Q16539); test: Inhibition of human MAPK14 at 1 uM using MBP as substrate in presence of [gamma33P]-ATP by HotSpot assay relative to control
[20] = molecular target: MAP kinase-interacting serine/threonine-protein kinase 1 (Homo sapiens, UniProt Q9BUB5, T385D); test: Inhibition of human MNK1 T385D mutant using MBP as substrate in presence of [gamma33P]-ATP by HotSpot assay
Angiopoietin-1 receptor = Angiopoietin-1 receptor (Homo sapiens, UniProt Q02763); test: Inhibition of human TEK using poly (Glu, Tyr)4:1 as substrate in presence of [gamma33P]-ATP by HotSpot assay
[21] = molecular target: Mitogen-activated protein kinase 11 (Homo sapiens) (UniProt Q15759); test: Inhibition of human MAPK11 at 1 uM using MBP as substrate in presence of [gamma33P]-ATP by HotSpot assay relative to control
[22] = molecular target: Tyrosine-protein kinase ABL2 (Homo sapiens) (UniProt P42684); test: Inhibition of human ABL2 at 1 uM using EAIYAAPFAKKK as substrate in presence of [gamma33P]-ATP by HotSpot assay relative to control
Chain of Tyrosine-protein kinase ABL2 (Homo sapiens) (P42684 whole entry): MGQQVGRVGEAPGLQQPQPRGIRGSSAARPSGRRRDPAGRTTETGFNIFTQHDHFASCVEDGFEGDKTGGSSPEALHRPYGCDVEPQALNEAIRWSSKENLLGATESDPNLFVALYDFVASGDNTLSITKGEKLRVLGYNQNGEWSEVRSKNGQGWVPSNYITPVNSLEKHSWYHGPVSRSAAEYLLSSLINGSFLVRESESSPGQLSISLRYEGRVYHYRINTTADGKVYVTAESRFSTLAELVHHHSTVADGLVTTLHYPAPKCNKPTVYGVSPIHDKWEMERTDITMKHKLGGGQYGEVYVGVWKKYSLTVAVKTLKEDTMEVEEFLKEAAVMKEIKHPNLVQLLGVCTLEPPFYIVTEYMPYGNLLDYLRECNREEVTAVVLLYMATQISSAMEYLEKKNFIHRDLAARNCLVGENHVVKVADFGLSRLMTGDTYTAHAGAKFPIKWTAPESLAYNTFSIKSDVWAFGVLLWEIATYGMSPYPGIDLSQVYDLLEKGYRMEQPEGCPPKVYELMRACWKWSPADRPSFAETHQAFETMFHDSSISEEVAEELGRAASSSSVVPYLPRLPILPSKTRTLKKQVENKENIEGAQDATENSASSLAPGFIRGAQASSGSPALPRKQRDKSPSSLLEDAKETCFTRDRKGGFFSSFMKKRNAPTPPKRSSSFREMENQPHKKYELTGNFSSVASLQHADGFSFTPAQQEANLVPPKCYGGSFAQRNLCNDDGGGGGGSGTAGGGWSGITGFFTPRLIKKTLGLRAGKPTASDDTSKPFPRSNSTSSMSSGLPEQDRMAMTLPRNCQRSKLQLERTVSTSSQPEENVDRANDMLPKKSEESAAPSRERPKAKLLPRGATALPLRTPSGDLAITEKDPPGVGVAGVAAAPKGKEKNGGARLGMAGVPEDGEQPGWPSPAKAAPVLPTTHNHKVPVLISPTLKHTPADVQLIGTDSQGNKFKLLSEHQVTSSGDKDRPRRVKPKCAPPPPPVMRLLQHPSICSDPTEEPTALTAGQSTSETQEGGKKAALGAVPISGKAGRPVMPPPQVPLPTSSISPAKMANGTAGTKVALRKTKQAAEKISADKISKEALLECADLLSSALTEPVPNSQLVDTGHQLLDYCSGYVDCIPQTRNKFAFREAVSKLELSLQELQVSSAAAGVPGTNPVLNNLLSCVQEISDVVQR

[23] = molecular target: Protein kinase C eta type (Homo sapiens) (UniProt P24723); test: Inhibition of human PKCeta at 1 uM using ERMRPRKRQGSVRRRV as substrate in presence of [gamma33P]-ATP by HotSpot assay relative to control
[24] = molecular target: Ephrin type-B receptor 3 (Homo sapiens) (UniProt P54753); test: Inhibition of human EPHB3 at 1 uM using poly (Glu, Tyr)4:1 as substrate in presence of [gamma33P]-ATP by HotSpot assay relative to control
[25] = molecular target: LIM domain kinase 1 (Homo sapiens) (UniProt P53667); test: Inhibition of human LIMK1 at 1 uM using cofilin as substrate in presence of [gamma33P]-ATP by HotSpot assay relative to control
[26] = molecular target: Tyrosine-protein kinase Fgr (Homo sapiens, UniProt P09769); test: Inhibition of human FGR using poly (Glu, Tyr)4:1 as substrate in presence of [gamma33P]-ATP by HotSpot assay
Chain of Tyrosine-protein kinase Fgr (P09769 whole entry): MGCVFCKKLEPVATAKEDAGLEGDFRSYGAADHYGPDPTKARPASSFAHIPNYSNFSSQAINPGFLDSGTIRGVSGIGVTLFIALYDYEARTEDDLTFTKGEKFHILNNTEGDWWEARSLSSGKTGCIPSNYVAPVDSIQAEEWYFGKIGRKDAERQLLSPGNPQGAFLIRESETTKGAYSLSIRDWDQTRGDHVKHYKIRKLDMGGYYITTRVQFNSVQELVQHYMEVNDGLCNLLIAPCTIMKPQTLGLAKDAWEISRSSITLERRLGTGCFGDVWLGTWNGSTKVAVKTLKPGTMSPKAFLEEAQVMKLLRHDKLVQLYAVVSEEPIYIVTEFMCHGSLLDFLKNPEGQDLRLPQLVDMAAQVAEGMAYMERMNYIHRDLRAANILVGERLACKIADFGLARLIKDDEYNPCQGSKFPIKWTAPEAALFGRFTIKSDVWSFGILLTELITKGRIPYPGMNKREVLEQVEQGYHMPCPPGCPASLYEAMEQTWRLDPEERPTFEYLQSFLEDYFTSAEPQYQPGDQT

[27] = molecular target: Serine/threonine-protein kinase Nek3 (Homo sapiens) (UniProt P51956); test: Inhibition of human NEK3 at 1 uM using MBP as substrate in presence of [gamma33P]-ATP by HotSpot assay relative to control

COc1cc(N2CCC(N3CCN(C)CC3)CC2)ccc1Nc1ncc(Cl)c(Nc2ccccc2P(C)(C)=O)n1 [BRIGATINIB]
inhibition [1]: < 90% | inhibition [2]: < 90% | inhibition [3]: < 90% | inhibition [4]: < 90% | inhibition [5]: < 90% | IC50 [6]: 30 nM | inhibition [7]: < 90% | Activity [8]: Non-Toxic | inhibition [9]: < 90% | inhibition [10]: < 90% | inhibition [11]: < 90% | inhibition [12]: inactive | inhibition [13]: Active | inhibition [14]: < 90% | IC50 [15]: 816 nM | inhibition [16]: Active | inhibition [17]: < 90% | inhibition [18]: < 90% | inhibition [19]: < 90% | IC50 [20]: 88 nM | IC50 (Angiopoietin-1 receptor): > 1000 nM | inhibition [21]: < 90% | inhibition [22]: < 90% | inhibition [23]: < 90% | inhibition [24]: < 90% | inhibition [25]: < 90% | IC50 [26]: 492 nM | inhibition [27]: < 90%

From ChEMBL document CHEMBL5696443 (Clin Cancer Res, 2016)
